Series [1] deals with (CAG)10 RNA (SEQ ID NO: 5). The series can be described thus: SPR binding to immobilized biotinylated RNA. The following applies: for Off-rates (koff) / On-rates (kon): SPR. As for the experimental part:
(§1) SPR binding measurements were performed on a Biacore-X instrument (Biacore, Inc., Uppsala, Sweden) with two flow channels (FC1 and FC2). 5′-Biotinylated-RNA sequences, with a C6 linker separating the biotin label from the RNA (Integrated DNA Technologies Inc.) were immobilized on streptavidin (Rockland Immunochemicals) functionalized carboxylmethyl dextran coated sensor chips (CM5, G.E. Healthcare) using EDC/NHS (Advanced ChemTech) coupling chemistry. Filtered (0.2μ), degassed and autoclaved HBS-N buffer (0.01M Hepes, pH=7.4, 0.15 M NaCl) was employed as sample and as running buffer for all SPR experiments. A typical protocol for an experiment is as follows: A CM5 sensor chip was allowed to equilibrate to room temperature and then docked into the instrument. Following priming with running buffer, FC1 and FC2 were conditioned by manual injection of 20 μL aqueous NaOH (50 mM) at a flow rate of 30 μL/min. This was repeated 3 times followed by a wash command. Next, the carboxyl groups on the sensor chip surface in both flow cells were activated separately by injecting 60 μL of freshly prepared 1:1 mixture of EDC (0.4 M) and NHS (0.1 M) at a 5 μL/min flow rate followed by a wash. […] After washing, the surface was deactivated with 60 μL injection of ethanolamine (1M, pH=8.5) at 5 μL/min. The flow cells were primed, and the streptavidin surface in FC1 alone was blocked with 30 μL of biotin (20 μM in HBS-N) at 5 μL/min. The RNA (200 nM in running buffer, HBS-N) to be immobilized was unfolded by heating above its predicted melting temperature in a heated block for 2 min and then allowed to refold by cooling gradually to room temperature. The RNA was then immobilized in FC2 alone to response units ranging from 200-1000 RU using a 5 μL/min flow rate. Representative sensorgrams for the immobilization procedure is shown in FIGS. 2A-B. Two 20 μL aliquots of NaCl (0.5 M) were injected at a 30 μL/min flow rate to remove non-specifically bound RNA. The level of RNA immobilized was noted when the baseline was stable, usually after repeated buffer injection followed by a “prime” command. Binding measurements were performed by flowing various concentrations of the compounds to be analyzed over the immobilized RNA and recording the reference-subtracted (FC2−FC1) sensorgrams. For kinetic analysis, at least five sensorgrams corresponding to different concentrations of compound (usually ranging from 0.05-1 μM in HBS-N) were obtained using flow rates of either 60 μL/min or 30 μL/min. The experimental sensorgrams were globally fitted to a 1:1 binding equation (Biaevaluation software) to obtain association rates (ka) and dissociation rates ([…]) as well as equilibrium binding constants (KD). To measure the binding stoichiometry (n), the relations in equations (1-3) below were used: […]
(§2) where RUmax is the maximum resonance response unit at saturation, RURNA is the amount RU of RNA immobilized, n is the stoichiometry, MWcompound and MWRNA are molecular weights of compound and RNA respectively, and RUeq represents the resonance response at steady-state (equilibrium). The response units at equilibrium were subjected to Scatchard binding plots of (r/Cfree vs. r).
(§3) The binding characteristics of compounds 3-11 were evaluated against pathogenic CUG^exp RNA and other RNA sequences by SPR. This technique allows the association and dissociation rates (ka and kd), equilibrium binding constants (KD), and the binding stoichiometry (n) to be measured in a label-free format (Liu and Wilson, “Quantitative Analysis of Small Molecule-nucleic Acid Interactions with a Biosensor Surface and Surface Plasmon Resonance Detection,” Methods Mol. Biol. 613:1-23 (2010), which is hereby incorporated by reference in its entirety). […]
(In general: SPR reads the build-up and loss of mass on a sensor chip optically.)

Series [2] deals with (CCUG)10 RNA (SEQ ID NO: 4). The series can be described thus: SPR binding to immobilized biotinylated RNA. Particulars: (CCUG)10; for Off-rates (koff) / On-rates (kon): SPR. As to the method: as §1, §2, §3
Series [3] concerns (CUG)2 RNA (SEQ ID NO: 1). The series can be described thus: SPR binding to immobilized biotinylated RNA. Particulars: for Off-rates (koff) / On-rates (kon): SPR; for ka / kd: Table 7, SPR. As for the experimental part: as §1, §2, §3
Series [4] concerns (CUG)4 RNA (SEQ ID NO: 2). The series can be described thus: SPR binding to immobilized biotinylated RNA. Particulars: for Off-rates (koff) / On-rates (kon): SPR. As to the method: as §1, §2, §3
Series [5] has as its system CUG-CAG duplex ("Duplex") (SEQ ID NO: 6). The series can be described thus: SPR binding to immobilized biotinylated RNA. Particulars: for Residence time (t1/2) for compound binding to RNA / Off-rates (koff) / On-rates (kon): Duplex. As for the experimental part:
as §1, §2, §3

Series [6] relates to human fibroblasts. Put plainly: Cell permeability by fluorescence microscopy. The class given is cell-based. Particulars: intrinsic fluorescence, 4 and 5 incubated as a mixture. As to the method: For cell permeability studies, human fibroblasts or mouse myoblasts grown to 80% confluence were exposed to compounds for 12 hours in a 96 well tissue culture plate. After removal of the culture media (DMEM, with 10% FBS, 1% pen-strep (GIBCO)) the cells were washed twice with PBS to remove excess compounds. Cells were then imaged while in buffer under a fluorescence microscope (Olympus IX70) in the 96-well plate using a 460 nm emission filter.
(§4) SPR and fluorescence titration experiments, performed using the protocol described in Examples 3 and 4 above, except using as the target a highly conserved RNA sequence responsible for regulating the production of the Gag-Pol polyprotein via a −1 ribosomal frameshift, which occurs along a “slippery sequence” in gag-pol mRNA (SEQ ID NO: 7). This “frameshift stimulatory sequence” (or “HIV-1 FSS”) consists of an upper stemloop and a lower stem, separated by a purine bulge in the most common types of HIV (FIG. 19). For the fluorescent titration experiments, the upper stemloop of SEQ ID NO: 7 was employed. Cell uptake and toxicity studies were carried out using human fibroblasts according to Example 5 above.

Series [7] has as its system human fibroblasts. The series can be described thus: MTT toxicity assay. Particulars: compounds 4 and 5 measured as a mixture, concentrations up to 500 μM. It counts as cell-based. As for the experimental part:
(§5) For toxicity studies, mouse myoblasts or human fibroblasts were plated in a 96-well tissue culture plate in DMEM (10% fetal bovine serum, 100 units/ml penicillin, […]) and allowed to grow to approximately 80% confluence at 37° C. under CO2. Varying compound concentrations (up to 1 mM) were incubated with cells (48 hours, 37° C.). Media was then removed, and 3-(4,5-dimethylthiazol-2-yl)-2,5-diphenyltetrazolium bromide (“MTT”) in media was added to each well and incubated at 37° C. for 4 h. After removal of the MTT media, isopropanol (100 pp was added, and absorbance was measured at 600 nm on a Modulus microplate reader (Turner Biosystems).
as §4
Background: Tetrazolium assays rely on reduction of a dye to a coloured formazan, in cell work by metabolically active cells.

Another series has as its system mouse myoblasts. Put plainly: MTT toxicity assay. It counts as cell-based. Particulars: individually. As to the method:
as §5

As to `CCc1nc2cc3ccccc3cc2cc1C(=O)N1CCC[C@H]1C(=O)N[C@@H](C/C=C\C[C@H](NC(=O)[C@@H]1CCCN1C(=O)c1cc2cc3ccccc3cc2nc1CC)C(=O)N[C@@H](CCCCN)C(=O)NCCCN)C(=O)N[C@@H](CCCCN)C(=O)NCCCN` [Compound 4], the “Residence time (t1/2) for compound binding to RNA” value came to 3.9965 min in series [1]; 6.2772 min in series [2]; 13.08 min in series [3]; 7.0858 min in series [4]; 7.549 min in series [5]. Besides, the “Off-rates (koff)” value in series [1] was 0.00289 s⁻¹; in series [2], 0.00184 s⁻¹; in series [3] it was 0.000883 s⁻¹; in series [4], 0.00163 s⁻¹; in series [5] (SPR), 0.00153 s⁻¹. Moreover, the “On-rates (kon)” value in series [1] stood at 35600 M⁻¹ s⁻¹; in series [2], 60100 M⁻¹ s⁻¹; in series [3], 24500 M⁻¹ s⁻¹; in series [4], 42400 M⁻¹ s⁻¹; in series [5] (SPR), 29500 M⁻¹ s⁻¹. In addition, the ka entry in series [3] is “ka = 2.45E+4/M * s”. Besides, the kd entry in series [3] is “kd = 8.83E−4/s”. The “binding to duplex CUG-CAG stronger than the E isomer, compound 5” value in series [5] (SPR) is given as “approximately 5.7 fold”. For the same compound, the “cell membrane penetration / localization” value with human fibroblasts [6] was “Localization is shown, especially in the nucleus of cells”. For the same compound, the figures for the “toxicity (MTT)” value in the series on human fibroblasts [7] and in the series on mouse myoblasts were “no significant toxicity” and “increasing toxicity was observed in mouse myoblasts above 100 μM”, respectively.

For `CCc1nc2cc3ccccc3cc2cc1C(=O)N1CCC[C@H]1C(=O)N[C@@H](C/C=C/C[C@H](NC(=O)[C@@H]1CCCN1C(=O)c1cc2cc3ccccc3cc2nc1CC)C(=O)N[C@@H](CCCCN)C(=O)NCCCN)C(=O)N[C@@H](CCCCN)C(=O)NCCCN` [Compound 5], the “Residence time (t1/2) for compound binding to RNA” value was found to be 4.2308 min in series [1]; 11.702 min in series [2]; 15.02 min in series [3]; 8.3093 min in series [4]; 3.0078 min in series [5]. The “Off-rates (koff)” value in series [1] is 0.00273 s⁻¹; in series [2] it was 0.000987 s⁻¹; in series [3] it was 0.000769 s⁻¹; in series [4], 0.00139 s⁻¹; in series [5] (SPR) it was 0.00384 s⁻¹. Further, the “On-rates (kon)” value in series [1] came to 50200 M⁻¹ s⁻¹; in series [2] it was 49700 M⁻¹ s⁻¹; in series [3], 20100 M⁻¹ s⁻¹; in series [4], 30100 M⁻¹ s⁻¹; in series [5] (SPR), 15000 M⁻¹ s⁻¹. Further, in series [3], the ka entry is listed as “ka = 2.01E+4/M * s”. The kd result in series [3] is recorded as “kd = 7.69E−4/s”. In addition, the “cell membrane penetration / localization” value in the series with human fibroblasts [6] is “Localization is shown, especially in the nucleus of cells”. The “toxicity (MTT)” value with human fibroblasts [7] is reported as “no significant toxicity”; with mouse myoblasts, “increasing toxicity was observed in mouse myoblasts above 100 μM”.
